In ChEMBL document CHEMBL3885881, “DrugMatrix”:

Species on record: Rattus norvegicus
Assay: DrugMatrix - Regimen: Daily Repeat
Assay type: toxicity, organism-based, Sprague-Dawley
Design: regimen Daily Repeat, gender Male, age 6-8 weeks
Conditions: in vivo, iv, vehicle 100 % SALINE; for ABSOLUTE BASOPHIL / ABSOLUTE EOSINOPHIL / ABSOLUTE LYMPHOCYTE / ABSOLUTE MONOCYTE / ABSOLUTE SEGMENTED NEUTROPHIL / BASOPHIL / EOSINOPHIL / ERYTHROCYTE COUNT / HEMATOCRIT / HEMOGLOBIN / LEUKOCYTE COUNT / LYMPHOCYTE / MEAN CORPUSCULAR HEMOGLOBIN / MEAN CORPUSCULAR HEMOGLOBIN CONCENTRATION / MEAN CORPUSCULAR VOLUME / MONOCYTE / NEUTROPHIL / NUCLEATED RED BLOOD CELLS / PLATELET COUNT: tissue Blood; for ALANINE AMINOTRANSFERASE / ALBUMIN / ALKALINE PHOSPHATASE / ASPARTATE AMINOTRANSFERASE / BLOOD UREA NITROGEN / CARBON DIOXIDE / CHLORIDE / CHOLESTEROL / CREATINE PHOSPHOKINASE / CREATININE / GLUCOSE / LACTATE DEHYDROGENASE / LIPASE / PHOSPHORUS / POTASSIUM / SODIUM / TOTAL BILIRUBIN / TOTAL PROTEIN / URIC ACID: tissue Plasma
[1] = 29 mg/kg, 120 h, dose level Low, time 5 day
[2] = 48 mg/kg, 72 h, dose level High, time 3 day
[3] = 48 mg/kg, 120 h, dose level High, time 5 day

## C[n+]1ccccc1/C=N/O.[Cl-] [PRALIDOXIME CHLORIDE]
[1]
  ABSOLUTE BASOPHIL: 0 CELLS/uL
  ABSOLUTE EOSINOPHIL: 0 CELLS/uL
  ABSOLUTE LYMPHOCYTE: 11211.67 CELLS/uL
  ABSOLUTE MONOCYTE: 254 CELLS/uL
  ABSOLUTE SEGMENTED NEUTROPHIL: 1034.33 CELLS/uL
  BASOPHIL: 0%
  EOSINOPHIL: 0%
  ERYTHROCYTE COUNT: 5.41 x10E6/uL
  HEMATOCRIT: 34.03%
  HEMOGLOBIN: 12.57 G/DL
  LEUKOCYTE COUNT: 12.5 x10E3/uL
  LYMPHOCYTE: 89.67%
  MEAN CORPUSCULAR HEMOGLOBIN: 23.3 pg
  MEAN CORPUSCULAR HEMOGLOBIN CONCENTRATION: 36.97 G/DL
  MEAN CORPUSCULAR VOLUME: 63 fL
  MONOCYTE: 2%
  NEUTROPHIL: 8.33%
  NUCLEATED RED BLOOD CELLS: 0 /100WBC
  PLATELET COUNT: 1164.33 x10E3/uL
  ALANINE AMINOTRANSFERASE: 69.67 u/L
  ALBUMIN: 3.7 G/DL
  ALKALINE PHOSPHATASE: 366.67 u/L
  ASPARTATE AMINOTRANSFERASE: 95.33 u/L
  BLOOD UREA NITROGEN: 17.67 mg/dL
  CARBON DIOXIDE: 22.67 mmol/L
  CHLORIDE: 105 MEQ/L
  CHOLESTEROL: 58.67 mg/dL
  CREATINE PHOSPHOKINASE: 283.67 u/L
  CREATININE: 0.2 mg/dL
  GLUCOSE: 168.67 mg/dL
  LACTATE DEHYDROGENASE: 87.33 u/L
  LIPASE: 9 u/L
  PHOSPHORUS: 12.73 mg/dL
  POTASSIUM: 7.24 MEQ/L
  SODIUM: 145.2 MEQ/L
  TOTAL BILIRUBIN: 0.1 mg/dL
  TOTAL PROTEIN: 5.83 G/DL
  URIC ACID: 1.97 mg/dL
[2]
  ABSOLUTE BASOPHIL: 0 CELLS/uL
  ABSOLUTE EOSINOPHIL: 0 CELLS/uL
  ABSOLUTE LYMPHOCYTE: 13021.33 CELLS/uL
  ABSOLUTE MONOCYTE: 38.67 CELLS/uL
  ABSOLUTE SEGMENTED NEUTROPHIL: 1206.67 CELLS/uL
  BASOPHIL: 0%
  EOSINOPHIL: 0%
  ERYTHROCYTE COUNT: 5.54 x10E6/uL
  HEMATOCRIT: 36.53%
  HEMOGLOBIN: 13.53 G/DL
  LEUKOCYTE COUNT: 14.27 x10E3/uL
  LYMPHOCYTE: 91.33%
  MEAN CORPUSCULAR HEMOGLOBIN: 24.57 pg
  MEAN CORPUSCULAR HEMOGLOBIN CONCENTRATION: 37.03 G/DL
  MEAN CORPUSCULAR VOLUME: 66.2 fL
  MONOCYTE: 0.33%
  NEUTROPHIL: 8.33%
  NUCLEATED RED BLOOD CELLS: 0 /100WBC
  PLATELET COUNT: 1281.33 x10E3/uL
  ALANINE AMINOTRANSFERASE: 51.67 u/L
  ALBUMIN: 4.43 G/DL
  ALKALINE PHOSPHATASE: 377.33 u/L
  ASPARTATE AMINOTRANSFERASE: 70.67 u/L
  BLOOD UREA NITROGEN: 14.67 mg/dL
  CARBON DIOXIDE: 19.33 mmol/L
  CHLORIDE: 101.33 MEQ/L
  CHOLESTEROL: 73.67 mg/dL
  CREATINE PHOSPHOKINASE: 198.33 u/L
  CREATININE: 0.19 mg/dL
  GLUCOSE: 169.33 mg/dL
  LACTATE DEHYDROGENASE: 89.67 u/L
  LIPASE: 10 u/L
  PHOSPHORUS: 11.87 mg/dL
  POTASSIUM: 6 MEQ/L
  SODIUM: 146.3 MEQ/L
  TOTAL BILIRUBIN: 0.2 mg/dL
  TOTAL PROTEIN: 6.03 G/DL
  URIC ACID: 1.37 mg/dL
[3]
  ABSOLUTE BASOPHIL: 0 CELLS/uL
  ABSOLUTE EOSINOPHIL: 56 CELLS/uL
  ABSOLUTE LYMPHOCYTE: 13632 CELLS/uL
  ABSOLUTE MONOCYTE: 1059.33 CELLS/uL
  ABSOLUTE SEGMENTED NEUTROPHIL: 1786 CELLS/uL
  BASOPHIL: 0%
  EOSINOPHIL: 0.33%
  ERYTHROCYTE COUNT: 5.32 x10E6/uL
  HEMATOCRIT: 32.57%
  HEMOGLOBIN: 12.23 G/DL
  LEUKOCYTE COUNT: 16.53 x10E3/uL
  LYMPHOCYTE: 82.33%
  MEAN CORPUSCULAR HEMOGLOBIN: 23 pg
  MEAN CORPUSCULAR HEMOGLOBIN CONCENTRATION: 37.57 G/DL
  MEAN CORPUSCULAR VOLUME: 61.17 fL
  MONOCYTE: 6.33%
  NEUTROPHIL: 11%
  NUCLEATED RED BLOOD CELLS: 0 /100WBC
  PLATELET COUNT: 992.67 x10E3/uL
  ALANINE AMINOTRANSFERASE: 69 u/L
  ALBUMIN: 3.57 G/DL
  ALKALINE PHOSPHATASE: 386.67 u/L
  ASPARTATE AMINOTRANSFERASE: 113.33 u/L
  BLOOD UREA NITROGEN: 16 mg/dL
  CARBON DIOXIDE: 27 mmol/L
  CHLORIDE: 104.33 MEQ/L
  CHOLESTEROL: 62 mg/dL
  CREATINE PHOSPHOKINASE: 792 u/L
  CREATININE: 0.2 mg/dL
  GLUCOSE: 194 mg/dL
  LACTATE DEHYDROGENASE: 193.33 u/L
  LIPASE: 11.33 u/L
  PHOSPHORUS: 11.63 mg/dL
  POTASSIUM: 6.09 MEQ/L
  SODIUM: 144.97 MEQ/L
  TOTAL BILIRUBIN: 0.13 mg/dL
  TOTAL PROTEIN: 6.03 G/DL
  URIC ACID: 1.73 mg/dL
